Laboratory results from patent US9290457B2, “Substituted dihydropyrimidinones and their use as inhibitors of neutrophil elastase activity” (Boehringer Ingelheim International GmbH, priority 2014, dated 2016).

The compounds below were run against neutrophil elastase (Homo sapiens (Human), UniProt P08246) (assay: Human Neutrophil Elastase Assay). Settings: substrate MeOSuc-Ala-Ala-Pro-Val-AMC.
Format: biochemical
Description: Human Neutrophil Elastase Assay
All other materials were of the highest grade commercially available.
The following buffers were used: Compound buffer: 100 mM Tris, 500 mM NaCl, adjusted to pH 7.5; Assay buffer: 100 mM Tris, 500 mM NaCl, adjusted to pH 7.5, containing 0.01% BSA.
Assay conditions: Test compounds were prediluted in DMSO and subsequently in compound buffer (5% DMSO final). […] After inactivation of the enzyme, fluorescence intensities were measured at 380 nm excitation and 460 nm emission wavelengths.
Each plate contains wells with a high value control (DMSO+enzyme+substrate) and wells with a low value control (DMSO+inactivated enzyme+substrate). IC50 values were estimated using a sigmoidal concentration response curve with variable slope. Means of low values were taken as 0%, means of high values as 100%.

neutrophil elastase, sequence (P08246 30-247): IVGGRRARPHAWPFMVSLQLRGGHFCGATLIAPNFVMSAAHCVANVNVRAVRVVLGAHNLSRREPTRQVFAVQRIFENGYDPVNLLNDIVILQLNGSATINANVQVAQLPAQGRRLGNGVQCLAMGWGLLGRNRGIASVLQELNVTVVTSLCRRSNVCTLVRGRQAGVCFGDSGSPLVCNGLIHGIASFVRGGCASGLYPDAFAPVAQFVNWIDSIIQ

Row | SMILES | IC50 [nM]
1 | CCOC(=O)C1=C(C)N(c2cccc(C(F)(F)F)c2)C(=O)N(C)C1c1ccc(C#N)cc1C(=O)N1CCN(C2CC2)CC1 (stereo not shown) [Example 3.42] | 2.9
2 | CCOC(=O)C1=C(C)N(c2cccc(C(F)(F)F)c2)C(=O)N(C)C1c1ccc(C#N)cc1C(=O)N1CCN2CCCC2C1 (stereo not shown) [Example 3.43] | 2.8
3 | CCOC(=O)C1=C(C)N(c2cccc(C(F)(F)F)c2)C(=O)N(C)C1c1ccc(C#N)cc1C(=O)N1CCN(C(C)C)CC1 (stereo not shown) [Example 3.45] | 1.8
4 | CCOC(=O)C1=C(C)N(c2cccc(C(F)(F)F)c2)C(=O)N(C)C1c1ccc(C#N)cc1C(=O)N1CCN2CCOCC2C1 (stereo not shown) [Example 3.46] | 3.8
5 | CCOC(=O)C1=C(C)N(c2cccc(C(F)(F)F)c2)C(=O)N(C)C1c1ccc(C#N)cc1C(=O)N1C[C@H]2C[C@@H]1CN2 (stereo partly shown) [Example 4.1] | 2.4
6 | CCOC(=O)C1=C(C)N(c2cccc(C(F)(F)F)c2)C(=O)N(C)C1c1ccc(C#N)cc1C(=O)NC1CCNCC1 (stereo not shown) [Example 4.2] | 1.7
7 | CCOC(=O)C1=C(C)N(c2cccc(C(F)(F)F)c2)C(=O)N(C)C1c1ccc(C#N)cc1C(=O)N1CCC(N)CC1 (stereo not shown) [Example 4.3] | 4.8
8 | CCOC(=O)C1=C(C)N(c2cccc(C(F)(F)F)c2)C(=O)N(C)C1c1ccc(C#N)cc1C(=O)N1CC2COCC(C1)N2 (stereo not shown) [Example 4.4] | 11.4
9 | CCOC(=O)C1=C(C)N(c2cccc(C(F)(F)F)c2)C(=O)N(C)C1c1ccc(C#N)cc1C(=O)N1CCNC(C)C1 (stereo not shown) [Example 4.17] | 2
10 | CC(=O)C1=C(C)N(c2cccc(C(F)(F)F)c2)C(=O)N(C)C1c1ccc(C#N)cc1-c1ccoc1 (stereo not shown) [Example 5, 4-[5-Acetyl-3,6-dimethyl-2-oxo-1-(3-trifluoromethyl-phenyl)-1,2,3,4-tetrahydro-pyrimidin-4-yl]-3-furan-3-yl-benzonitrile] | 2.6
11 | CC(=O)C1=C(C)N(c2cccc(C(F)(F)F)c2)C(=O)N(C)C1c1ccc(C#N)cc1-c1ccco1 (stereo not shown) [Example 5.1] | 1.9
12 | CC(=O)C1=C(C)N(c2cccc(C(F)(F)F)c2)C(=O)N(C)C1c1ccc(C#N)cc1-c1ccn(C)n1 (stereo not shown) [Example 5.2] | 1.4
13 | CC(=O)C1=C(C)N(c2cccc(C(F)(F)F)c2)C(=O)N(C)C1c1ccc(C#N)cc1C1=CN(C(=O)OC(C)(C)C)CC1 (stereo not shown) [Example 5.5] | 5.3
14 | CC(=O)C1=C(C)N(c2cccc(C(F)(F)F)c2)C(=O)N(C)C1c1ccc(C#N)cc1C1=CCN(C(=O)OC(C)(C)C)CC1 (stereo not shown) [Example 5.6, 4-{2-[5-Acetyl-3,6-dimethyl-2-oxo-1-(3-trifluoromethyl-phenyl)-1,2,3,4-tetrahydro-pyrimidin-4-yl]-5-cyano-phenyl}-3,6-dihydro-2H-pyridine-1-carboxylic acid tert-butyl ester] | 4.8
15 | CC(=O)C1=C(C)N(c2cccc(C(F)(F)F)c2)C(=O)N(C)C1c1ccc(C#N)cc1-c1cccnc1 (stereo not shown) [Example 5.9] | 1.4
16 | CC(=O)C1=C(C)N(c2cccc(C(F)(F)F)c2)C(=O)N(C)C1c1ccc(C#N)cc1-c1ccc2c(cnn2C)c1 (stereo not shown) [Example 5.12] | 3
17 | CC(=O)C1=C(C)N(c2cccc(C(F)(F)F)c2)C(=O)N(C)C1c1ccc(C#N)cc1-c1ccc2occc2c1 (stereo not shown) [Example 5.13] | 22.6
18 | CC(=O)C1=C(C)N(c2cccc(C(F)(F)F)c2)C(=O)N(C)C1c1ccc(C#N)cc1-c1ccc2c(ccn2C)c1 (stereo not shown) [Example 5.14] | 5.7
19 | CC(=O)C1=C(C)N(c2cccc(C(F)(F)F)c2)C(=O)NC1c1ccc(C#N)cc1-c1ccoc1 (stereo not shown) [Example 11, 4-[5-Acetyl-6-methyl-2-oxo-1-(3-trifluoromethyl-phenyl)-1,2,3,4-tetrahydro-pyrimidin-4-yl]-3-furan-3-yl-benzonitrile] | 4.6
20 | CCOC(=O)C1=C(C)N(c2cccc(C(F)(F)F)c2)C(=O)N(C)C1c1ccc(C#N)cc1-c1ccco1 (stereo not shown) [Example 14, 4-(4-Cyano-2-furan-2-yl-phenyl)-3,6-dimethyl-2-oxo-1-(3-trifluoromethyl-phenyl)-1,2,3,4-tetrahydro-pyrimidine-5-carboxylic acid ethyl ester] | 3.7
21 | CCOC(=O)C1=C(C)N(c2cccc(C(F)(F)F)c2)C(=O)N(C)C1c1ccc(C#N)cc1-c1ccoc1 (stereo not shown) [Example 14.1] | 3.2

Next, values leading:

Row | IC50 [nM] | SMILES
22 | < 1 | CCOC(=O)C1=C(C)N(c2cccc(C(F)(F)F)c2)C(=O)N(C)C1c1ccc(C#N)cc1C(=O)N1CCn2cnnc2C1 (stereo not shown) [Example 3.41]
23 | 1.1 | CCOC(=O)C1=C(C)N(c2cccc(C(F)(F)F)c2)C(=O)N(C)C1c1ccc(C#N)cc1C(=O)NC1CCN(C(C)C)C1 (stereo not shown) [Example 3.44]
24 | 1.4 | CCOC(=O)C1=C(C)N(c2cccc(C(F)(F)F)c2)C(=O)N(C)C1c1ccc(C#N)cc1C(=O)N1CCNCC1 (stereo not shown) [Example 4, 4-[4-Cyano-2-(piperazine-1-carbonyl)-phenyl]-3,6-dimethyl-2-oxo-1-(3-trifluoromethyl-phenyl)-1,2,3,4-tetrahydro-pyrimidine-5-carboxylic acid ethyl ester]
25 | < 1 | CCOC(=O)C1=C(C)N(c2cccc(C(F)(F)F)c2)C(=O)N(C)C1c1ccc(C#N)cc1C(=O)NCCN (stereo not shown) [Example 4.5]
26 | < 1 | CCOC(=O)C1=C(C)N(c2cccc(C(F)(F)F)c2)C(=O)N(C)C1c1ccc(C#N)cc1C(=O)N[C@H]1C[C@H]1N (stereo partly shown) [Example 4.6]
27 | < 1 | CCOC(=O)C1=C(C)N(c2cccc(C(F)(F)F)c2)C(=O)N(C)C1c1ccc(C#N)cc1C(=O)N[C@@H]1C[C@H]1N (stereo partly shown) [Example 4.7]
28 | < 1 | CCOC(=O)C1=C(C)N(c2cccc(C(F)(F)F)c2)C(=O)N(C)C1c1ccc(C#N)cc1C(=O)N(C)CCN (stereo not shown) [Example 4.8]
29 | < 1 | CCOC(=O)C1=C(C)N(c2cccc(C(F)(F)F)c2)C(=O)N(C)C1c1ccc(C#N)cc1C(=O)NCCNC (stereo not shown) [Example 4.9]
30 | 1.2 | CCOC(=O)C1=C(C)N(c2cccc(C(F)(F)F)c2)C(=O)N(C)C1c1ccc(C#N)cc1C(=O)N[C@H]1CCNC1 (stereo partly shown) [Example 4.10]
31 | 1.1 | CCOC(=O)C1=C(C)N(c2cccc(C(F)(F)F)c2)C(=O)N(C)C1c1ccc(C#N)cc1C(=O)N[C@@H]1CCNC1 (stereo partly shown) [Example 4.11]
32 | < 1 | CCOC(=O)C1=C(C)N(c2cccc(C(F)(F)F)c2)C(=O)N(C)C1c1ccc(C#N)cc1C(=O)N1CC[C@@H](N)C1 (stereo partly shown) [Example 4.12]
33 | < 1 | CCOC(=O)C1=C(C)N(c2cccc(C(F)(F)F)c2)C(=O)N(C)C1c1ccc(C#N)cc1C(=O)N1CC[C@H](N)C1 (stereo partly shown) [Example 4.13]
34 | < 1 | CCOC(=O)C1=C(C)N(c2cccc(C(F)(F)F)c2)C(=O)N(C)C1c1ccc(C#N)cc1C(=O)N1CC[C@H](NC)C1 (stereo partly shown) [Example 4.16]
35 | 1.3 | CCOC(=O)C1=C(C)N(c2cccc(C(F)(F)F)c2)C(=O)N(C)C1c1ccc(C#N)cc1C(=O)NC1CCN(C)C1 (stereo not shown) [Example 4.18]
36 | 1.1 | CC(=O)C1=C(C)N(c2cccc(C(F)(F)F)c2)C(=O)N(C)C1c1ccc(C#N)cc1-c1cnn(C)c1 (stereo not shown) [Example 5.3]
37 | < 1 | CC(=O)C1=C(C)N(c2cccc(C(F)(F)F)c2)C(=O)N(C)C1c1ccc(C#N)cc1-c1ccn(C)c(=O)c1 (stereo not shown) [Example 5.4]
38 | < 1 | CC(=O)C1=C(C)N(c2cccc(C(F)(F)F)c2)C(=O)N(C)C1c1ccc(C#N)cc1C1=CCOCC1 (stereo not shown) [Example 5.7]
39 | < 1 | CC(=O)C1=C(C)N(c2cccc(C(F)(F)F)c2)C(=O)N(C)C1c1ccc(C#N)cc1-c1cnco1 (stereo not shown) [Example 5.8]
40 | 1.3 | CC(=O)C1=C(C)N(c2cccc(C(F)(F)F)c2)C(=O)N(C)C1c1ccc(C#N)cc1-c1ccncc1 (stereo not shown) [Example 5.10]
41 | < 1 | CC(=O)C1=C(C)N(c2cccc(C(F)(F)F)c2)C(=O)N(C)C1c1ccc(C#N)cc1-c1ccc(=O)n(C)c1 (stereo not shown) [Example 5.11]
42 | < 1 | CC(=O)C1=C(C)N(c2cccc(C(F)(F)F)c2)C(=O)N(C)C1c1ccc(C#N)cc1-c1cncc(F)c1 (stereo not shown) [Example 5.15]
43 | < 1 | CC(=O)C1=C(C)N(c2cccc(C(F)(F)F)c2)C(=O)N(C)C1c1ccc(C#N)cc1-c1nnco1 (stereo not shown) [Example 6, 4-[5-Acetyl-3,6-dimethyl-2-oxo-1-(3-trifluoromethyl-phenyl)-1,2,3,4-tetrahydro-pyrimidin-4-yl]-3-[1,3,4]oxadiazol-2-yl-benzonitrile]
44 | < 1 | CC(=O)C1=C(C)N(c2cccc(C(F)(F)F)c2)C(=O)N(C)C1c1ccc(C#N)cc1-c1ncc(C)o1 (stereo not shown) [Example 7, 4-[5-Acetyl-3,6-dimethyl-2-oxo-1-(3-trifluoromethyl-phenyl)-1,2,3,4-tetrahydro-pyrimidin-4-yl]-3-(5-methyl-oxazol-2-yl)-benzonitrile]
45 | < 1 | CC(=O)C1=C(C)N(c2cccc(C(F)(F)F)c2)C(=O)N(C)C1c1ccc(C#N)cc1-c1nc(C)no1 (stereo not shown) [Example 9, 4-[5-Acetyl-3,6-dimethyl-2-oxo-1-(3-trifluoromethyl-phenyl)-1,2,3,4-tetrahydro-pyrimidin-4-yl]-3-(5-methyl-[1,3,4]oxadiazol-2-yl)-]
46 | < 1 | CC(=O)C1=C(C)N(c2cccc(C(F)(F)F)c2)C(=O)N(C)C1c1ccc(C#N)cc1C1=CCNCC1 (stereo not shown) [Example 10, 4-[5-Acetyl-3,6-dimethyl-2-oxo-1-(3-trifluoromethyl-phenyl)-1,2,3,4-tetrahydro-pyrimidin-4-yl]-3-(1,2,3,6-tetrahydro-pyridin-4-yl)-benzonitrile]
47 | < 1 | CC(=O)C1=C(C)N(c2cccc(C(F)(F)F)c2)C(=O)N(C)[C@@H]1c1ccc(C#N)cc1C(N)=O [Example 13, 2-[(R)-5-Acetyl-3,6-dimethyl-2-oxo-1-(3-trifluoromethyl-phenyl)-1,2,3,4-tetrahydro-pyrimidin-4-yl]-5-cyano-benzamide]
48 | < 1 | CC(=O)C1=C(C)N(c2cccc(C(F)(F)F)c2)C(=O)N(C)[C@@H]1c1ccc(C#N)cc1C(=O)NC1CC1 [Example 13.2]
49 | < 1 | CC(=O)C1=C(C)N(c2cccc(C(F)(F)F)c2)C(=O)N(C)[C@@H]1c1ccc(C#N)cc1C(=O)NCC#N [Example 13.3]
